Source: PubChem BioAssay AID248 (DTP/NCI, 2004)
Values joined by “and” are separate entries in the source; they are usually repeats but may differ in a detail not shown here. Equal values may be shown once. Inconclusive results and toxic doses are left out.

Test system: L1210 leukemia ip in BDF1 mice, survival T/C
Assay: NCI In Vivo Anticancer Drug Screen. Data for tumor model L1210 Leukemia (intraperitoneal) in B6D2F1 (BDF1) mice
Conditions: endpoint: mean survival time, higher = longer survival
Procedure, shortened: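 Mice bearing the transplanted tumor received compound or vehicle. Survival of the treated group was divided by that of the vehicle-treated control group to give the ratio.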

[1] = dose: 400.0 mg/kg/injection, schedule: Q01DX001 (ip), vehicle: carboxymethylcellulose (CMC)
[2] = dose: 100.0 mg/kg/injection, schedule: Q01DX009 (ip), vehicle: Klucel (hydroxypropylcellulose) (HPC)
[3] = dose: 100.0 mg/kg/injection, schedule: Q04DX003 (ip), vehicle: Klucel (hydroxypropylcellulose) (HPC)
[4] = dose: 200.0 mg/kg/injection, schedule: Q04DX003 (ip), vehicle: Klucel (hydroxypropylcellulose) (HPC)
[5] = dose: 400.0 mg/kg/injection, schedule: Q01DX001 (ip), vehicle: other
[6] = dose: 50.0 mg/kg/injection, schedule: Q01DX009 (ip), vehicle: saline
[7] = dose: 100.0 mg/kg/injection, schedule: Q01DX009 (ip), vehicle: saline
[8] = dose: 100.0 mg/kg/injection, schedule: Q04DX003 (ip), vehicle: saline
[9] = dose: 200.0 mg/kg/injection, schedule: Q04DX003 (ip), vehicle: saline
[10] = dose: 200.0 mg/kg/injection, schedule: Q01DX009 (ip), vehicle: saline
[11] = dose: 400.0 mg/kg/injection, schedule: Q01DX009 (ip), vehicle: saline
[12] = dose: 400.0 mg/kg/injection, schedule: Q04DX003 (ip), vehicle: saline
[13] = dose: 25.0 mg/kg/injection, schedule: Q01DX009 (ip), vehicle: saline
[14] = dose: 400.0 mg/kg/injection, schedule: Q04DX003 (ip), vehicle: Klucel (hydroxypropylcellulose) (HPC)
[15] = dose: 200.0 mg/kg/injection, schedule: Q01DX009 (ip), vehicle: Klucel (hydroxypropylcellulose) (HPC)
[16] = dose: 50.0 mg/kg/injection, schedule: Q01DX001 (ip), vehicle: saline
[17] = dose: 200.0 mg/kg/injection, schedule: Q01DX001 (ip), vehicle: saline

CN(CC1CCCO1)C(=O)Nc1ccc(Cl)cc1 (stereo not drawn)
T/C (dose: 100.0 mg/kg/injection, schedule: Q01DX009 (ip), vehicle: carboxymethylcellulose (CMC)): 107 % of control | T/C (dose: 200.0 mg/kg/injection, schedule: Q01DX009 (ip), vehicle: carboxymethylcellulose (CMC)): 96 % of control | T/C (dose: 400.0 mg/kg/injection, schedule: Q01DX009 (ip), vehicle: carboxymethylcellulose (CMC)): 104 % of control

COC(=O)C1(O)c2ccccc2-c2ccccc21
T/C (dose: 100.0 mg/kg/injection, schedule: Q01DX001 (ip), vehicle: carboxymethylcellulose (CMC)): 103 % of control | T/C (dose: 200.0 mg/kg/injection, schedule: Q01DX001 (ip), vehicle: carboxymethylcellulose (CMC)): 111 % of control | T/C [1]: 97 % of control

O=C(O)c1ccc(CNCc2ccccc2)cc1
T/C (dose: 75.0 mg/kg/injection, schedule: Q01DX001 (ip), vehicle: saline): 102 % of control | T/C (dose: 150.0 mg/kg/injection, schedule: Q01DX001 (ip), vehicle: saline): 96 % of control

N#CC12CC3CC(CC(C3)C1)C2
T/C (dose: 5.0 mg/kg/injection, schedule: Q01DX009 (ip), vehicle: saline with Tween-80): 104 % of control | T/C (dose: 10.0 mg/kg/injection, schedule: Q01DX009 (ip), vehicle: saline with Tween-80): 98 % of control | T/C (dose: 20.0 mg/kg/injection, schedule: Q01DX001 (ip), vehicle: carboxymethylcellulose (CMC)): 96 % of control | T/C (dose: 20.0 mg/kg/injection, schedule: Q01DX009 (ip), vehicle: saline with Tween-80): 112 % of control | T/C (dose: 40.0 mg/kg/injection, schedule: Q01DX001 (ip), vehicle: carboxymethylcellulose (CMC)): 95 % of control | T/C (dose: 80.0 mg/kg/injection, schedule: Q01DX001 (ip), vehicle: carboxymethylcellulose (CMC)): 96 % of control

CC1CC(NC(=S)S)CC(C)(C)C1 (stereo not drawn)
T/C (dose: 25.0 mg/kg/injection, schedule: Q01DX009 (ip), vehicle: Klucel (hydroxypropylcellulose) (HPC)): 93 % of control | T/C (dose: 50.0 mg/kg/injection, schedule: Q01DX009 (ip), vehicle: Klucel (hydroxypropylcellulose) (HPC)): 95 % of control | T/C [2]: 97 % of control | T/C [3]: 93 % of control | T/C [4]: 96 % of control

CCCCCCN(CCCCCC)[N+](=O)[O-]
T/C (dose: 100.0 mg/kg/injection, schedule: Q01DX001 (ip), vehicle: other): 96 % of control | T/C (dose: 200.0 mg/kg/injection, schedule: Q01DX001 (ip), vehicle: other): 100 % of control | T/C [5]: 96 % of control

O=c1cccc2n1Cc1cc3ccccc3nc1-2
T/C (dose: 37.5 mg/kg/injection, schedule: Q04DX003 (ip), vehicle: saline): 95 % of control | T/C (dose: 75.0 mg/kg/injection, schedule: Q04DX003 (ip), vehicle: saline): 89 % of control

Cc1ccc2c(c1)CCCN2C
T/C [6]: 96 % of control | T/C [7]: 95 % of control | T/C [8]: 100 % of control | T/C [9]: 94 % of control

CCOC(=O)C1OC1(C)c1ccccc1 (stereo not drawn)
T/C [7]: 102 % of control | T/C [8]: 100 % of control | T/C [10]: 100 % of control | T/C [9]: 94 % of control | T/C [11]: 102 % of control | T/C [12]: 107 % of control

CCC(CC)(CO)CO
T/C [13]: 96 % of control | T/C (dose: 25.0 mg/kg/injection, schedule: Q04DX003 (ip), vehicle: saline): 96 % of control | T/C [6]: 96 % of control | T/C (dose: 50.0 mg/kg/injection, schedule: Q04DX003 (ip), vehicle: saline): 102 % of control | T/C [7]: 92 % of control | T/C [3]: 103 % of control | T/C [8]: 91 % of control | T/C [10]: 96 % of control | T/C [4]: 94 % of control | T/C [9]: 91 % of control | T/C [11]: 96 % of control | T/C [14]: 97 % of control | T/C [12]: 107 % of control

CCN(CC)C(N)=S
T/C [2]: 108 % of control | T/C [3]: 106 % of control | T/C [15]: 100 % of control | T/C [4]: 103 % of control | T/C (dose: 400.0 mg/kg/injection, schedule: Q01DX009 (ip), vehicle: Klucel (hydroxypropylcellulose) (HPC)): 100 % of control | T/C [14]: 112 % of control

c1ccc(NCCOc2ccccc2)cc1
T/C [2]: 108 % of control | T/C (dose: 100.0 mg/kg/injection, schedule: Q04DX002 (ip), vehicle: Klucel (hydroxypropylcellulose) (HPC)): 114 % of control | T/C [15]: 94 % of control | T/C (dose: 200.0 mg/kg/injection, schedule: Q04DX002 (ip), vehicle: Klucel (hydroxypropylcellulose) (HPC)): 98 % of control | T/C (dose: 400.0 mg/kg/injection, schedule: Q04DX002 (ip), vehicle: Klucel (hydroxypropylcellulose) (HPC)): 88 % of control

O=NN(CCCl)C(=O)Nc1ccc(CCO)cc1
T/C (dose: 0.25 mg/kg/injection, schedule: Q01DX009 (ip), vehicle: saline): 112 % of control | T/C (dose: 0.38 mg/kg/injection, schedule: Q01DX009 (ip), vehicle: saline): 114 % of control | T/C (dose: 0.59 mg/kg/injection, schedule: Q01DX009 (ip), vehicle: saline): 164 % of control | T/C (dose: 0.89 mg/kg/injection, schedule: Q01DX009 (ip), vehicle: saline): 205 % of control | T/C (dose: 7.0 mg/kg/injection, schedule: Q01DX009 (ip), vehicle: saline): 202 % of control | T/C (dose: 10.0 mg/kg/injection, schedule: Q01DX009 (ip), vehicle: saline): 109 % of control | T/C (dose: 78.0 mg/kg/injection, schedule: Q01DX001 (ip), vehicle: other): 185 % of control | T/C (dose: 119.0 mg/kg/injection, schedule: Q01DX001 (ip), vehicle: other): 201 % of control | T/C (dose: 178.0 mg/kg/injection, schedule: Q01DX001 (ip), vehicle: carboxymethylcellulose (CMC)): 242 % of control | T/C (dose: 178.0 mg/kg/injection, schedule: Q01DX001 (ip), vehicle: other): 160 % of control and 235 % of control | T/C (dose: 266.0 mg/kg/injection, schedule: Q01DX001 (ip), vehicle: carboxymethylcellulose (CMC)): 226 % of control | T/C (dose: 266.0 mg/kg/injection, schedule: Q01DX001 (ip), vehicle: other): 193 % of control | T/C [1]: 276 % of control | T/C [5]: 182 % of control | T/C (dose: 600.0 mg/kg/injection, schedule: Q01DX001 (ip), vehicle: carboxymethylcellulose (CMC)): 244 % of control

CS(=O)(=O)OCCN(CCOS(C)(=O)=O)c1ccc(C=Nc2ccc(-c3csc(-c4ccc(Br)cc4)n3)cc2)c(Cl)c1
T/C (dose: 50.0 mg/kg/injection, schedule: Q04DX003 (ip), vehicle: Klucel (hydroxypropylcellulose) (HPC)): 107 % of control | T/C [3]: 112 % of control and 115 % of control | T/C [4]: 114 % of control and 118 % of control | T/C [14]: 123 % of control

O=C1c2ccccc2C(=O)C(Cl)C1Cl (stereo not drawn)
T/C (dose: 1.56 mg/kg/injection, schedule: Q04DX003 (ip), vehicle: other): 97 % of control | T/C (dose: 3.13 mg/kg/injection, schedule: Q04DX003 (ip), vehicle: other): 92 % of control | T/C (dose: 6.25 mg/kg/injection, schedule: Q04DX003 (ip), vehicle: other): 96 % of control and 100 % of control

Cc1ccccc1C(c1ccccc1)N(C)C (stereo not drawn)
T/C [16]: 100 % of control | T/C (dose: 100.0 mg/kg/injection, schedule: Q01DX001 (ip), vehicle: saline): 96 % of control | T/C [17]: 96 % of control | T/C (dose: 400.0 mg/kg/injection, schedule: Q01DX001 (ip), vehicle: saline): 92 % of control

C1CCC2OCOCC2C1 (stereo not drawn)
T/C (dose: 100.0 mg/kg/injection, schedule: Q04DX002 (ip), vehicle: saline with Tween-80): 93 % of control | T/C (dose: 200.0 mg/kg/injection, schedule: Q04DX002 (ip), vehicle: saline with Tween-80): 90 % of control | T/C (dose: 400.0 mg/kg/injection, schedule: Q04DX002 (ip), vehicle: saline with Tween-80): 93 % of control

O=C(O)C1CCCCC1/C=N/Nc1ccc([N+](=O)[O-])cc1[N+](=O)[O-] (stereo not drawn)
T/C [16]: 93 % of control | T/C [17]: 89 % of control

Cc1cccc(C)c1N=Nc1sc(N)nc1C
T/C (dose: 75.0 mg/kg/injection, schedule: Q01DX001 (ip), vehicle: acetone): 114 % of control | T/C (dose: 150.0 mg/kg/injection, schedule: Q01DX001 (ip), vehicle: acetone): 94 % of control | T/C (dose: 300.0 mg/kg/injection, schedule: Q01DX001 (ip), vehicle: acetone): 110 % of control

CC1=C/C(=N/N(C)C)CC(C)C1 (stereo not drawn)
T/C (dose: 12.5 mg/kg/injection, schedule: Q01DX009 (ip), vehicle: saline): 96 % of control | T/C [13]: 102 % of control | T/C [6]: 95 % of control | T/C [8]: 100 % of control | T/C [9]: 109 % of control | T/C [12]: 112 % of control
